According to ChEMBL document CHEMBL4507310, “Data for DCP probe A-1211212” (2021):

Assays:
[1] = target: Tyrosine-protein kinase Tec (Homo sapiens) (UniProt P42680); conditions: Compound concentration 1000.0 nM
[2] = target: Receptor-interacting serine/threonine-protein kinase 1 (Homo sapiens) (UniProt Q13546); conditions: Compound concentration 1000.0 nM
[3] = target: Ephrin type-A receptor 2 (Homo sapiens) (UniProt P29317); conditions: Compound concentration 1000.0 nM
[4] = tested on: Phosphatidylinositol 4,5-bisphosphate 3-kinase catalytic subunit alpha isoform (Homo sapiens), P42336 [E542K]; conditions: Compound concentration 1000.0 nM
Sequence of Phosphatidylinositol 4,5-bisphosphate 3-kinase catalytic subunit alpha isoform (Homo sapiens), P42336 [E542K] (P42336 whole entry E542K, canonical isoform): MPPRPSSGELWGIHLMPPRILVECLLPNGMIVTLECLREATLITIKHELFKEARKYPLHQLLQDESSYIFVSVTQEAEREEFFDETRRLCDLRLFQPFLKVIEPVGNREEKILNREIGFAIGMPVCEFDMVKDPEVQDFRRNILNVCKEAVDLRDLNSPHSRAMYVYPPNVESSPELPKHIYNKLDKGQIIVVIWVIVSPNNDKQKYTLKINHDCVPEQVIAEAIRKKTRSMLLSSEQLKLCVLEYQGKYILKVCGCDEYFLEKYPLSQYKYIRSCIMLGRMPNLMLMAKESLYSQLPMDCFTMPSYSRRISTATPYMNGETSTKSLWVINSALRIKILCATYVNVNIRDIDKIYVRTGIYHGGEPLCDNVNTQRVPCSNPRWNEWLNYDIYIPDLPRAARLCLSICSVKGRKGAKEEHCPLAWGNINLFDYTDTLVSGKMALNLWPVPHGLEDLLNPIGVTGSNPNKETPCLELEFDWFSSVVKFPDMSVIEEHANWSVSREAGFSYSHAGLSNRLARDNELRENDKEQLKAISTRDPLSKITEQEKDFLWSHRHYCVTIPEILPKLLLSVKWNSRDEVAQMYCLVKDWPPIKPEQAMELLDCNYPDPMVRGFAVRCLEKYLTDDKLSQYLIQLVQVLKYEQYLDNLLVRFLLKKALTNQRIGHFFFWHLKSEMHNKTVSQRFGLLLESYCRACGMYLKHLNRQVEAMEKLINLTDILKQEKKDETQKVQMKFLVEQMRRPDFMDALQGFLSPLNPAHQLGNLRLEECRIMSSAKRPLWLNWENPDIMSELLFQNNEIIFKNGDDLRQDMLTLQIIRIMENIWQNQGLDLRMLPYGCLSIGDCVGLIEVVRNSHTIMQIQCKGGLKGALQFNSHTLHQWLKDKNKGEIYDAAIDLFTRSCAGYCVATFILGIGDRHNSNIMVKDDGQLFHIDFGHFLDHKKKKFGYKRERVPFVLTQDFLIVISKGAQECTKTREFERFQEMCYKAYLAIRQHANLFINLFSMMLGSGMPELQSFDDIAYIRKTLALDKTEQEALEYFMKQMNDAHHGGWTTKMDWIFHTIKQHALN

[5] = target: GABA-A receptor; anion channel (Rattus norvegicus) (UniProt O09028+P15431+P18506+P18508+P19969+P20236+P23574+P23576+P28471+P28473+P30191+P62813+P63079+P63138+Q91ZM7+Q9ES14); assay: BZD (central) Eurofins-Cerep binding assay; assay type: protein-complex assay; parameters: ligand concentration 0.4 nM; conditions: filed as agonist, Compound concentration 10.0 uM
[6] = target: Serine/threonine-protein kinase MARK2 (Homo sapiens) (UniProt Q7KZI7); conditions: Compound concentration 1000.0 nM
[7] = target: Cyclin-dependent kinase 5 (Homo sapiens) (UniProt Q00535); conditions: Compound concentration 1000.0 nM
[8] = target: Casein kinase I isoform gamma-2 (Homo sapiens) (UniProt P78368); conditions: Compound concentration 1000.0 nM
[9] = target: Ephrin type-B receptor 2 (Homo sapiens) (UniProt P29323); conditions: Compound concentration 1000.0 nM
[10] = target: Insulin receptor-related protein (Homo sapiens) (UniProt P14616); conditions: Compound concentration 1000.0 nM
[11] = target: Uncharacterized serine/threonine-protein kinase SBK3 (Homo sapiens) (UniProt P0C264); conditions: Compound concentration 1000.0 nM
Sequence of Uncharacterized serine/threonine-protein kinase SBK3 (Homo sapiens) (P0C264 whole entry): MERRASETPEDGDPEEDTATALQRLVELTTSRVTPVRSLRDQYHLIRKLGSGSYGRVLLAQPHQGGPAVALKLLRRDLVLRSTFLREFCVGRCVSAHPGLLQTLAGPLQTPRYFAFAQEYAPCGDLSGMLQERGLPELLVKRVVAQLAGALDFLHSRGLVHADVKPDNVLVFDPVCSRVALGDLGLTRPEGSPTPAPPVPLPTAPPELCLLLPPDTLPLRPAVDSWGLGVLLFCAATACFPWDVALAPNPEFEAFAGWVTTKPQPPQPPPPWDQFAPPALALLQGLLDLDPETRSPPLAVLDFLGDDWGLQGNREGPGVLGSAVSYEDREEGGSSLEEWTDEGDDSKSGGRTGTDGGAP

[12] = target: Serine/threonine-protein kinase PAK 5 (Homo sapiens) (UniProt Q9P286); conditions: Compound concentration 1000.0 nM
Sequence of Serine/threonine-protein kinase PAK 5 (Homo sapiens) (Q9P286 whole entry, looked up): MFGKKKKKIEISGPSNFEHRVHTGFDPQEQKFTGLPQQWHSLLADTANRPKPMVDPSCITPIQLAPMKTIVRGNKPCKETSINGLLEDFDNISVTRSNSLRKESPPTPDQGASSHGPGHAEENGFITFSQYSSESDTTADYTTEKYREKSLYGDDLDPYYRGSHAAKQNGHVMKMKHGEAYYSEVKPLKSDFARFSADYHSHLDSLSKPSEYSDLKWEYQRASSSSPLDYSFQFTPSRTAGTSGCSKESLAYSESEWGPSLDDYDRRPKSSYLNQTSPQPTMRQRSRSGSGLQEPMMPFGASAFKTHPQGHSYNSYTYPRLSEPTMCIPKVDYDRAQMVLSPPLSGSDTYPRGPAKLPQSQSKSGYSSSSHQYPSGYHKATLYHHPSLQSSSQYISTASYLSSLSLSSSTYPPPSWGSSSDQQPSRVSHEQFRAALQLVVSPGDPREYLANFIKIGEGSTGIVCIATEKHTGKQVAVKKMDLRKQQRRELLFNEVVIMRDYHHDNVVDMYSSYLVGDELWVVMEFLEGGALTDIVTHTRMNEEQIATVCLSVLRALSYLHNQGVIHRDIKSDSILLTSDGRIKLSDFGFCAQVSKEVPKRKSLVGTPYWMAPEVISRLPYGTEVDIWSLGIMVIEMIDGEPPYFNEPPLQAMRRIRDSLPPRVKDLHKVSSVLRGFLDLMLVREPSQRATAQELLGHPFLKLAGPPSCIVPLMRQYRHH

[13] = target: T1, Muscarinic acetylcholine receptor M2 (Homo sapiens) (UniProt P08172); assay: M2 (h) Eurofins-Cerep binding assay; parameters: ligand concentration 2 nM; conditions: filed as antagonist, Compound concentration 10.0 uM
T1 sequence (whole entry): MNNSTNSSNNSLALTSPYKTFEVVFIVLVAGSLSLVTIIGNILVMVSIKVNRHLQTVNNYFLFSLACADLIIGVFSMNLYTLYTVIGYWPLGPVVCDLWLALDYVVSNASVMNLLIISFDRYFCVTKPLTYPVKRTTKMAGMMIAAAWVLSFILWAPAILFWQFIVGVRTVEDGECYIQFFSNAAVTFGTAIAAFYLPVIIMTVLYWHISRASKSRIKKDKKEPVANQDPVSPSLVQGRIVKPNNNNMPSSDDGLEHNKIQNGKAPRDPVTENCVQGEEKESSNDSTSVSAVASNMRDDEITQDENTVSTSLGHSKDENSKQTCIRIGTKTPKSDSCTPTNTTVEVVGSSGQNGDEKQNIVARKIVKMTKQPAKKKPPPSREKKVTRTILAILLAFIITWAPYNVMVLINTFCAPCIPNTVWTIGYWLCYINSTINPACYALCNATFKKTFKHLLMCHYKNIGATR

[14] = target: Serine/threonine-protein kinase OSR1 (Homo sapiens) (UniProt O95747); conditions: Compound concentration 1000.0 nM
Sequence of Serine/threonine-protein kinase OSR1 (Homo sapiens) (O95747 2-527 limits assumed): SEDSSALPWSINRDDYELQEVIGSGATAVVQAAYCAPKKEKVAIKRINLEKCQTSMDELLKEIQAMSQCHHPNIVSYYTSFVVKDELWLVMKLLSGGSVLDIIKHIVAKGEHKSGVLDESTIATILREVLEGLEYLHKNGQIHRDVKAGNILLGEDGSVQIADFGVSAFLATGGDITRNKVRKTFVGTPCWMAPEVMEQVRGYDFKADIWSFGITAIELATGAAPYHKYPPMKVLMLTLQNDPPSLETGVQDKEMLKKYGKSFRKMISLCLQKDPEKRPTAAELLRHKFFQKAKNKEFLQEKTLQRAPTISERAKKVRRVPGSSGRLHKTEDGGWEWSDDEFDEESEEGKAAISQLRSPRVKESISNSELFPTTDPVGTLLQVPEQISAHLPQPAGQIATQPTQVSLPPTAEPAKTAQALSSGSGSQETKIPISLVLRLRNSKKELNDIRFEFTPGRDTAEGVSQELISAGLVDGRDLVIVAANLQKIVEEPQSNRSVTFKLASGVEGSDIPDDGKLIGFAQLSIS

[15] = target: Protein-tyrosine kinase 2-beta (Homo sapiens) (UniProt Q14289); conditions: Compound concentration 1000.0 nM
[16] = target: Casein kinase I isoform delta (Homo sapiens) (UniProt P48730); conditions: Compound concentration 1000.0 nM
[17] = target: Homeodomain-interacting protein kinase 4 (Homo sapiens) (UniProt Q8NE63); conditions: Compound concentration 1000.0 nM
[18] = target: Phosphatidylinositol 3-kinase C2 domain-containing subunit gamma (Homo sapiens) (UniProt O75747); conditions: Compound concentration 1000.0 nM
[19] = target: Testis-specific serine/threonine-protein kinase 3 (Homo sapiens) (UniProt Q96PN8); conditions: Compound concentration 1000.0 nM
Sequence of Testis-specific serine/threonine-protein kinase 3 (Homo sapiens) (Q96PN8 whole entry): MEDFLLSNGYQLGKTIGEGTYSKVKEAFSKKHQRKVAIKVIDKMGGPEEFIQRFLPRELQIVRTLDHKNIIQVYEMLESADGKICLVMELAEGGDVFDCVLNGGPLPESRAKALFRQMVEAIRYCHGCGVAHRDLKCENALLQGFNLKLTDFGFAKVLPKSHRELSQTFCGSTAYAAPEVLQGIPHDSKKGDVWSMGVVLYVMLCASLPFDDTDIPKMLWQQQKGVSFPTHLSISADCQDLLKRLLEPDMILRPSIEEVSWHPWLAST

[20] = target: Insulin-like growth factor 1 receptor (Homo sapiens) (UniProt P08069); conditions: Compound concentration 1000.0 nM
[21] = target: T2, Muscarinic acetylcholine receptor M1 (Homo sapiens) (UniProt P11229); conditions: Compound concentration 10.0 uM
T2 sequence (whole entry): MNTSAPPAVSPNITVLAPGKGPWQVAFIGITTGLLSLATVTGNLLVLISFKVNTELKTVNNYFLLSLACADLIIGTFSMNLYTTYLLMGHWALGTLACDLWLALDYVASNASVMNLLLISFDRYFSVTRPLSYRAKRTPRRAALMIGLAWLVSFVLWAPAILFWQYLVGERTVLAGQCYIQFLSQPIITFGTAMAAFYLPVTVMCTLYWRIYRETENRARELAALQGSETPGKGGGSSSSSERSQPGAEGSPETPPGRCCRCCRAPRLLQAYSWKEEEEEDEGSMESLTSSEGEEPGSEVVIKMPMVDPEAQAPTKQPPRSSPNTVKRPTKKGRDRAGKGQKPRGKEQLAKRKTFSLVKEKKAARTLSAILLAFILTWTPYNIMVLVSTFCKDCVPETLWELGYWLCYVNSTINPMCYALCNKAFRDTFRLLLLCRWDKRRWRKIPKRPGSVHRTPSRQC

[22] = target: Cannabinoid receptor 2 (Homo sapiens) (UniProt P34972); assay: CB2 (h) Eurofins-Cerep binding assay; parameters: ligand concentration 0.8 nM; conditions: filed as agonist, Compound concentration 10.0 uM
[23] = tested on: Proto-oncogene tyrosine-protein kinase receptor Ret (Homo sapiens), P07949 [V804M]; conditions: Compound concentration 1000.0 nM
[24] = target: Histamine H1 receptor (Homo sapiens) (UniProt P35367); conditions: Compound concentration 10.0 uM
[25] = target: Kappa-type opioid receptor (Homo sapiens) (UniProt P41145); assay: kappa (h) (KOP) Eurofins-Cerep binding assay; parameters: ligand concentration 0.5 nM; conditions: filed as agonist, Compound concentration 10.0 uM
[26] = target: Tyrosine-protein kinase receptor TYRO3 (Homo sapiens) (UniProt Q06418); conditions: Compound concentration 1000.0 nM
[27] = target: Receptor-interacting serine/threonine-protein kinase 4 (Homo sapiens) (UniProt P57078); conditions: Compound concentration 1000.0 nM
[28] = target: Cyclin-dependent kinase 4 (Homo sapiens) (UniProt P11802); conditions: Compound concentration 1000.0 nM
Sequence of Cyclin-dependent kinase 4 (Homo sapiens) (P11802 whole entry): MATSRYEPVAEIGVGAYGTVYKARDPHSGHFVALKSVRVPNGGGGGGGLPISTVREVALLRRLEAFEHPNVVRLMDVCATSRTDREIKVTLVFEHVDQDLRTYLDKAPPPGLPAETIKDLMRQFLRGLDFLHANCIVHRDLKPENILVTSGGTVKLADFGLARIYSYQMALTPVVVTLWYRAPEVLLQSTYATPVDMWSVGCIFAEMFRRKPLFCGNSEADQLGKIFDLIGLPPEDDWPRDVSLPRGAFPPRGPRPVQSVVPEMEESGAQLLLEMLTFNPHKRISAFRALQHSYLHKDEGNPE

Sequence of Receptor-interacting serine/threonine-protein kinase 1 (Homo sapiens) (Q13546 whole entry): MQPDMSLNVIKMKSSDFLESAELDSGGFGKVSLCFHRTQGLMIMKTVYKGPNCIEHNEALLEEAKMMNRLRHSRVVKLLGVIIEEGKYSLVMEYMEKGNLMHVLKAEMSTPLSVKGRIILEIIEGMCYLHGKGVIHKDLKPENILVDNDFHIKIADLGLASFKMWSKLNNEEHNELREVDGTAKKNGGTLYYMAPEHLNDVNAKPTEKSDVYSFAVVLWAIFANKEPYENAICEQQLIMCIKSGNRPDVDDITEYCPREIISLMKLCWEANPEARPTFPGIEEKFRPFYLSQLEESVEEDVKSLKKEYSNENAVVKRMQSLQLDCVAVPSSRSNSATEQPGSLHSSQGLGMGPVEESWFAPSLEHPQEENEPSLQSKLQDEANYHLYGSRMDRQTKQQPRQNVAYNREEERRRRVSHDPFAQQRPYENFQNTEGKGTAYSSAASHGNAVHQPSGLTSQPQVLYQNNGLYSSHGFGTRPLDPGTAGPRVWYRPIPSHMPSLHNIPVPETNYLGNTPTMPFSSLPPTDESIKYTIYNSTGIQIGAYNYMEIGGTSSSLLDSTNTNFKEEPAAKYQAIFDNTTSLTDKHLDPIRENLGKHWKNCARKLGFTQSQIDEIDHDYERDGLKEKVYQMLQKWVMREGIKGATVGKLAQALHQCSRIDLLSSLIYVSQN
Sequence of Ephrin type-A receptor 2 (Homo sapiens) (P29317 whole entry, canonical isoform): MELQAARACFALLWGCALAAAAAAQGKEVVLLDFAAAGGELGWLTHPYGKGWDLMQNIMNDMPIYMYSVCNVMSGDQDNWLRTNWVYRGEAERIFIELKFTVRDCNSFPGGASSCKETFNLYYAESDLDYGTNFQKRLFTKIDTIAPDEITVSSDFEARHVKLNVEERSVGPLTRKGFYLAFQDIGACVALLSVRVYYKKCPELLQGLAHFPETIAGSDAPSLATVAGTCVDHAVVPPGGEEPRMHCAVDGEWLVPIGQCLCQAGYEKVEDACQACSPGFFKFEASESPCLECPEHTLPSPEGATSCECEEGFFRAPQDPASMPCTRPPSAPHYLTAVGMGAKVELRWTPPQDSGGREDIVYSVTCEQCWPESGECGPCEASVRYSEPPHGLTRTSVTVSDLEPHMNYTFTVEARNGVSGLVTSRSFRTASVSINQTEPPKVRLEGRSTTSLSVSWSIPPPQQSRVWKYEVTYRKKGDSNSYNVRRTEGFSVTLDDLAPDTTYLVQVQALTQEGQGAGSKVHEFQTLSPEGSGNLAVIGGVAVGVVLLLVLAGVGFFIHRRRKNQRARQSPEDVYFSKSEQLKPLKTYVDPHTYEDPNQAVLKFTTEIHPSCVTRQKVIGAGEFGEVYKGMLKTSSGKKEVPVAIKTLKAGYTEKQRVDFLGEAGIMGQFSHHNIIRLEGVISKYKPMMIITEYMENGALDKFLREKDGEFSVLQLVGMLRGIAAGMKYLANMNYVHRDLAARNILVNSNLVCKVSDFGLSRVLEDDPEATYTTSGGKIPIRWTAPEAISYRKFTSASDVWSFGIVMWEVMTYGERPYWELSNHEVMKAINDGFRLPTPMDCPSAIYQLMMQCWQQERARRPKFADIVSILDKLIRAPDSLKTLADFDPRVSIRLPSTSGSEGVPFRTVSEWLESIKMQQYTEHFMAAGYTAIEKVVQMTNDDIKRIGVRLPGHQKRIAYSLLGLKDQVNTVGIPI

Compound	residual activity [1] [%]	residual activity [2] [%]	residual activity [3] [%]	residual activity [4] [%]	% Inhibition of Control Specific Binding (Mean n=2) [5] [%]	residual activity [6] [%]	residual activity [7] [%]	residual activity [8] [%]	residual activity [9] [%]	residual activity [10] [%]	residual activity [11] [%]	residual activity [12] [%]	% Inhibition of Control Specific Binding (Mean n=2) [13] [%]	residual activity [14] [%]	residual activity [15] [%]	residual activity [16] [%]	residual activity [17] [%]	residual activity [18] [%]	residual activity [19] [%]	residual activity [20] [%]	also measured
O=C(NS(=O)(=O)c1ccc(NCC2CCOCC2)c([N+](=O)[O-])c1)c1ccc(N2CCN(Cc3ccc(C(F)(F)F)cc3-c3ccc(Cl)cc3)CC2)cc1Oc1cnc2[nH]ccc2c1 [A-1210227]	71	99	92	98	4.2	100	81	100	100	98	100	95	0.3	83	100	80	98	80	79	100	inhibition [21]: -6.07%; % Inhibition of Control Specific Binding (Mean n=2) [22]: -13%; residual activity [23]: 100%; inhibition [24]: -9.16%; % Inhibition of Control Specific Binding (Mean n=2) [25]: 23.2%; residual activity [26]: 92%; residual activity [27]: 75%; residual activity [28]: 100%
CO[C@H]1CC[C@H](CNc2ccc(S(=O)(=O)NC(=O)c3ccc(N4CCN(CC5=C(c6ccc(Cl)cc6)CC(C)(C)CC5)CC4)cc3Oc3cnc4[nH]ccc4c3)cc2[N+](=O)[O-])CC1 [A-1211212]	74	77	100	94	-1	100	82	80	75	100	83	99	-4.7	76	87	93	4.4	72	70	82	inhibition [21]: 4.59%; % Inhibition of Control Specific Binding (Mean n=2) [22]: 21.4%; residual activity [23]: 93%; inhibition [24]: 34.2%; % Inhibition of Control Specific Binding (Mean n=2) [25]: 1.1%; residual activity [26]: 84%; residual activity [27]: 65%; residual activity [28]: 100%
